Data published in patent publication EP0240392A1, “Compounds of the cyclophosphazene type, process for their preparation and pharmaceutical preparation containing them” (CENTRE NATIONAL DE LA RECHERCHE SCIENTIFIQUE (CNRS), priority 1986, dated 1987).

System: RETICULO SARCOME M5076 MURIN
Assay: Antitumour activity on murine M5076 reticulum sarcoma implanted i.m. in mice
Assay type: in vivo, souris C57Bl/6
Details: for Poids corporel (g±S.E.) / Poids de la rate (mg±S.E.) / Poids de la tumeur (g±S.E.) / Poids du foie (g±S.E.): jour 23; for nombre de souris vivantes/total: Tableau 5
From the text: Les tests d'activité antitumorale ont été conduits au sein du Screening and Pharmacology Group de l'E.O.R.T.C., implanté à l'Institut Mario Negri de Milan.
Ces essais ont été conduits soit en mono-injection à différentes doses au jour J+1 suivant la greffe de la tumeur, soit en poly-injections chroniques Q1D, soit en protocoles Q4D.

[1] = 100 mg/kg i.p. x j 1-9, jour 21
[2] = 150 mg/kg i.p. x j 1,5,9, jour 14
[3] = 150 mg/kg i.p. x j 1,5,9, jour 21
[4] = 150 mg/kg i.p. x j 1-9, jour 21
[5] = 200 mg/kg i.p. x j 1,5,9, jour 14
[6] = 200 mg/kg i.p. x j 1,5,9, jour 21
[7] = 250 mg/kg i.p. x j 1,5,9, jour 14
[8] = 250 mg/kg i.p. x j 1,5,9, jour 21
[9] = 300 mg/kg i.p. x j 1,5,9, jour 21

C(CCN1CCCNP12=NP(N1CC1)(N1CC1)=NP(N1CC1)(N1CC1)=N2)CN1CCCNP12=NP(N1CC1)(N1CC1)=NP(N1CC1)(N1CC1)=N2 (stereo not drawn) [SPM]
Poids corporel (g±S.E.) (50 mg/kg i.p. x j 1-9): 20,05±0,60 g
Poids de la rate (mg±S.E.) (50 mg/kg i.p. x j 1-9): 206,8±12,0 mg
Poids de la tumeur (g±S.E.) (50 mg/kg i.p. x j 1-9): 3,4033±0,26 g
Poids du foie (g±S.E.) (50 mg/kg i.p. x j 1-9): 1,6089±0,10 g
nombre de souris avec tumeur/total (100 mg/kg i.p. x j 1-9, jour 14): - (0/10)
Volume moyen de la tumeur (cm^3 ± S.E.) [1]: 0,92±0,03 cm^3
nombre de souris avec tumeur/total [1]: 12/12
Poids corporel (g±S.E.) (100 mg/kg i.p. x j 1-9): 20,22±0,37 g
Poids de la rate (mg±S.E.) (100 mg/kg i.p. x j 1-9): 137,9±5,04 mg
Poids de la tumeur (g±S.E.) (100 mg/kg i.p. x j 1-9): 2,1947±0,07 g
Poids du foie (g±S.E.) (100 mg/kg i.p. x j 1-9): 1,1750±0,03 g
Volume moyen de la tumeur (cm^3 ± S.E.) [2]: 0,41±0,04 cm^3
nombre de souris avec tumeur/total [2]: 4/10
Volume moyen de la tumeur (cm^3 ± S.E.) [3]: 2,23±0,16 cm^3
nombre de souris avec tumeur/total [3]: 10/10
Poids corporel (g±S.E.) (150 mg/kg i.p. x j 1,5,9): 21,55±0,29 g
Poids de la rate (mg±S.E.) (150 mg/kg i.p. x j 1,5,9): 240,7±17,1 mg
Poids de la tumeur (g±S.E.) (150 mg/kg i.p. x j 1,5,9): 3,5869±0,18 g
Poids du foie (g±S.E.) (150 mg/kg i.p. x j 1,5,9): 1,7270±0,10 g
nombre de souris avec tumeur/total (150 mg/kg i.p. x j 1-9, jour 14): - (0/10)
Volume moyen de la tumeur (cm^3 ± S.E.) [4]: 0,72±0 cm^3
nombre de souris avec tumeur/total [4]: 1/10
Poids corporel (g±S.E.) (150 mg/kg i.p. x j 1-9): 17,55±0,70 g
Poids de la rate (mg±S.E.) (150 mg/kg i.p. x j 1-9): 103,0±6,02 mg
Poids de la tumeur (g±S.E.) (150 mg/kg i.p. x j 1-9): 1,0795±0,11 g
Poids du foie (g±S.E.) (150 mg/kg i.p. x j 1-9): 1,0190±0,03 g
Volume moyen de la tumeur (cm^3 ± S.E.) [5]: 0,36±0,04 cm^3
nombre de souris avec tumeur/total [5]: 2/10
Volume moyen de la tumeur (cm^3 ± S.E.) [6]: 2,02±0,26 cm^3
nombre de souris avec tumeur/total [6]: 10/10
Poids corporel (g±S.E.) (200 mg/kg i.p. x j 1,5,9): 21,05±0,39 g
Poids de la rate (mg±S.E.) (200 mg/kg i.p. x j 1,5,9): 208,6± 8,8 mg
Poids de la tumeur (g±S.E.) (200 mg/kg i.p. x j 1,5,9): 3,2003±0,18 g
Poids du foie (g±S.E.) (200 mg/kg i.p. x j 1,5,9): 1,4620±0,08 g
nombre de souris avec tumeur/total (200 mg/kg i.p. x j 1-9, jour 14): - (0/10)
nombre de souris avec tumeur/total (200 mg/kg i.p. x j 1-9, jour 21): - (0/10)
Poids corporel (g±S.E.) (200 mg/kg i.p. x j 1-9): 17,20±0,48 g
Poids de la rate (mg±S.E.) (200 mg/kg i.p. x j 1-9): 117,8±9,9 mg
Poids de la tumeur (g±S.E.) (200 mg/kg i.p. x j 1-9): 0,3819±0,13 g
Poids du foie (g±S.E.) (200 mg/kg i.p. x j 1-9): 1,1088±0,01 g
Volume moyen de la tumeur (cm^3 ± S.E.) [7]: 0,32 cm^3
nombre de souris avec tumeur/total [7]: 1/9
Volume moyen de la tumeur (cm^3 ± S.E.) [8]: 1,02±0,08 cm^3
nombre de souris avec tumeur/total [8]: 8/9
Poids corporel (g±S.E.) (250 mg/kg i.p. x j 1,5,9): 20,16±0,47 g
Poids de la rate (mg±S.E.) (250 mg/kg i.p. x j 1,5,9): 144,5± 7,3 mg
Poids de la tumeur (g±S.E.) (250 mg/kg i.p. x j 1,5,9): 2,4530±0,18 g
Poids du foie (g±S.E.) (250 mg/kg i.p. x j 1,5,9): 1,2015±0,04 g
nombre de souris avec tumeur/total (300 mg/kg i.p. x j 1,5,9, jour 14): - (0/10)
Volume moyen de la tumeur (cm^3 ± S.E.) [9]: 0,94±0,09 cm^3
nombre de souris avec tumeur/total [9]: 9/10
Poids corporel (g±S.E.) (300 mg/kg i.p. x j 1,5,9): 20,20±0,53 g
Poids de la rate (mg±S.E.) (300 mg/kg i.p. x j 1,5,9): 125,6±10,8 mg
Poids de la tumeur (g±S.E.) (300 mg/kg i.p. x j 1,5,9): 2,2664±0,19 g
Poids du foie (g±S.E.) (300 mg/kg i.p. x j 1,5,9): 1,2654±0,06 g
nombre de souris vivantes/total (250 mg/kg i.p. x j 1,5,9): 250 " ( 9/9 )
nombre de souris vivantes/total (300 mg/kg i.p. x j 1,5,9): 300xj 1,5,9 (10/10)
